Drawing on ChEMBL document CHEMBL5727817, “3′ end caps, 5′ end caps and combinations thereof for therapeutic RNA” (2020), this text covers Kd for 7 compounds.

A short description of the assay: thermodynamic (Steady State Affinity) binding analysis: A subset of compounds was further characterized to determine dissociation constants using thermodynamic (Steady State Affinity) binding analysis.
Compound `Nc1nc([O-])c2c(n1)n([C@H]1O[C@@H](COP(=O)(O)O)[C@H](O)[C@@H]1O)c[n+]2Cc1ccccc1CS(=O)(=O)c1ccccc1` gave a dissociation constant Kd of 30 nM. Compound `Nc1nc([O-])c2c(n1)n([C@H]1O[C@@H](COP(=O)(O)O)[C@H](O)[C@@H]1O)c[n+]2Cc1ccc(-c2ccccc2F)cc1` yielded a Kd of 410 nM. `Nc1nc([O-])c2c(n1)n([C@H]1O[C@@H](COP(=O)(O)O)[C@H](O)[C@@H]1O)c[n+]2Cc1cccc(OCc2ccccc2)c1` displayed a dissociation constant Kd of 580 nM. In turn, `Nc1nc([O-])c2c(n1)n([C@H]1O[C@@H](COP(=O)(O)O)[C@H](O)[C@@H]1O)c[n+]2Cc1ccc(-c2ccccc2)c(Cl)c1` returned a dissociation constant Kd of 110 nM. This Kd lies about 5.3-fold lower than the previous one. As for `CO[C@H]1[C@@H](O)[C@H](COP(=O)(O)O)O[C@@H]1n1c[n+](CCOc2ccc(Cl)cc2)c2c([O-])nc(N)nc21`, the figure is 160 nM. As for `Nc1nc([O-])c2c(n1)n([C@H]1O[C@@H](COP(=O)(O)O)[C@H](O)[C@@H]1O)c[n+]2Cc1cccc(Oc2ccccc2)c1`, the affinity, expressed as Kd, was 220 nM. Consider `Nc1nc([O-])c2c(n1)n([C@H]1O[C@@H](COP(=O)(O)O)[C@H](O)[C@@H]1O)c[n+]2Cc1ccc(-c2ccccc2)cc1`, for which the dissociation constant Kd was 300 nM.

By Kd is commonly meant the concentration at which binding is half-saturated. A lower Kd goes with higher affinity.
